ChEMBL document CHEMBL3396992, “Synthesis and biological evaluation of pyrazolylthiazole carboxylic acids as potent anti-inflammatory-antimicrobial agents” (2015)

Assays:
Format in all cases: functional
Settings in all cases: route intraperitoneal
[1] = test system: Rattus norvegicus; test: Antiinflammatory activity against carrageenan-induced paw edema male Wistar albino rat assessed as edema volume at 10 mg/kg, ip administered 30 mins prior to carrageenan-challenge measured after 4 hrs (reference value: 1.88 +/- 0.20 mL)
[2] = test system: Rattus norvegicus; test: Antiinflammatory activity against carrageenan-induced paw edema male Wistar albino rat assessed as edema volume at 10 mg/kg, ip administered 30 mins prior to carrageenan-challenge measured after 3 hrs (reference value: 1.73 +/- 0.09 mL)
[3] = test system: Rattus norvegicus; test: Antiinflammatory activity against carrageenan-induced paw edema male Wistar albino rat at 10 mg/kg, ip administered 30 mins prior to carrageenan-challenge measured after 1 hr relative to control
[4] = test system: Rattus norvegicus; test: Antiinflammatory activity against carrageenan-induced paw edema male Wistar albino rat assessed as edema volume at 10 mg/kg, ip administered 30 mins prior to carrageenan-challenge measured after 1 hr (reference value: 1.11 +/- 0.12 mL)
[5] = test system: Rattus norvegicus; test: Antiinflammatory activity against carrageenan-induced paw edema male Wistar albino rat assessed as edema volume at 10 mg/kg, ip administered 30 mins prior to carrageenan-challenge measured after 2 hrs (reference value: 1.21 +/- 0.16 mL)
[6] = test system: Rattus norvegicus; test: Antiinflammatory activity against carrageenan-induced paw edema male Wistar albino rat at 10 mg/kg, ip administered 30 mins prior to carrageenan-challenge measured after 3 hrs relative to control
[7] = test system: Rattus norvegicus; test: Antiinflammatory activity against carrageenan-induced paw edema male Wistar albino rat at 10 mg/kg, ip administered 30 mins prior to carrageenan-challenge measured after 2 hrs relative to control
[8] = test system: Rattus norvegicus; test: Antiinflammatory activity against carrageenan-induced paw edema male Wistar albino rat at 10 mg/kg, ip administered 30 mins prior to carrageenan-challenge measured after 4 hrs relative to control

For COc1ccc2c(c1)c(CC(=O)O)c(C)n2C(=O)c1ccc(Cl)cc1 [INDOMETHACIN], the Activity [1] was 0.16 mL, the Activity [2] was 0.15 mL and the Activity [3] was 93.69%. It also gave an Activity [4] of 0.07 mL, an Activity [5] of 0.14 mL and an Activity [6] of 91.32%. The Activity [7] was 88.42% and the Activity [8] was 91.48%.
